Test results as given in patent US20240229043A1, “Methods and Compositions for Treating, Ameliorating, and/or Preventing Chronic Kidney Disease (CKD) and Complications thereof by Regulating DPEP1, CASP9, ACSS2 and/or FASN” (THE TRUSTEES OF THE UNIVERSITY OF PENNSYLVANIA, priority 2022, published 2024).
“Also recorded” adds a separate entry of the source.

Assays:
FASN [1] = biological target: T1, FASN (Mus musculus, UniProt P19096); format: cell-based
Procedure: The NADPH/NADP+ ratio was calculated according to the manufacturer protocol (#G1009, Promega). Briefly, an equal number of cells were cultured in a 96-well format and starved overnight for TGF-beta 1 treatments. Next, the cells were lysed in 20% DTAB containing Basic solution for 10 min at RT. Samples were processed according to the protocol for measuring NADPH and NADP+ from the same well simultaneously. The absolute and relative NADPH/NADP+ values were calculated according to the manufacturer's formula.
Reduced and oxidized glutathione levels were measured according to the Glutathione Colorimetric Detection Kit (#EIAGSHC, Thermo Scientific) from the same well after completion of all treatments.
(§1) Primary cells were cultured on microscopic cover glass overnight until they reached 70% confluency. Cells were incubated in a 5 μM MitoSox (#M36008, Thermo Scientific) solution for 10 min in incubator and processed for imaging and quantifications. Cells were also incubated in 10 μM JC-1 (#T3168, Thermo Scientific) for 10 min and then proceeded with imaging and quantifications.

FASN [2] = biological target: T1, FASN; format: in vivo
Procedure: (§2) Animal studies were approved by the Institutional Animal Care and Use Committee (IACUC) of the University of Pennsylvania. Mice were housed in pathogen free conditions with 12 h dark and light cycle in a temperature- and humidity-controlled environment (23±1). The mice were fed ad libitum with water and rodent standard chow diet. 6- to 7-week-old male and female C57BL/6J mice were used in the study. Mice were randomly assigned to experimental groups for all experiments including drug efficacy studies. To induce kidney injury, the present study employed two widely used kidney disease models including unilateral ureteral obstruction (UUO) and folic acid nephropathy (FAN). UUO surgery experiments were conducted on male and female mice. Briefly, UUO was performed by ligating the right kidney ureter, and the left kidney served as a sham operated kidney. Post-surgical procedures were followed according to the IACUC guidelines. For FAN models, 300 mM sodium bicarbonate (NaHCO3) solution was first made to solubilize folic acid (FA) and injected into male mice (FA 250 mg/kg i.p at single dose). Mice were sacrificed 7 days following injection or surgery. For the drug injection studies, mice were first injected one day before the UUO surgery.
(§3) Approximately 20-30 mg of kidney tissue was homogenized in SDS-blue loading buffer (#7722, CST) containing 42 mM DTT. Samples were loaded onto the SDS-PAGE gels and run at 100v for 1 h 40 min at RT in Tris-Glycine-SDS buffer. The proteins were transferred onto a PVDF membrane. Membranes were blocked with 3% non-fat dry milk powder in tris-buffer saline containing Tween-20 (TBST) for 30 min at RT. The blots were then incubated with primary antibody overnight at 4OC. After primary antibody incubation, the blots were washed three times with TBST, IRdye-conjugated secondary antibodies were probed for 1 h at RT. Finally, the blots were washed in TBST for three minutes each, 10 min at RT, and scanned at 600, 700, and 800 excitation wavelengths in Li-COR imager (Odysseyφ XF), Image Studio software. The images were quantified for relative abundance in Image J software.
(§4) The tissues were fixed in formalin, dehydrated by an ethanol gradient (30%, 50%, 75% and 95%) and then submitted to the histology Core in 100% ethanol. Once the tissue was sectioned, H&E and Sirius red staining was performed. Images were acquired in Olympus 5000 microscope with Cell Sense software. Percentage of relative fibrosis was quantified in image J.
(§5) For the inhibitor studies, littermate mice were randomly assigned to receive either FASNall or ACSS2i. A single dose of 1 mg/ml FASNall was given via i.p injection at 10 mg/kg body weight one day prior to the UUO surgery. Mice were sacrificed 3 days after UUO surgery, and their kidneys were harvested. ACSS2i was injected at 20 mg/kg body weight via i.p injection one day prior to UUO surgery, followed by daily injections for 5 days. Mice sacrificed on the 7th day after UUO surgery.

FASN [3] = biological target: T1, FASN
primary TECs = assay: Cisplatin-treated primary kidney tubule cells from wild-type and Chmp1a+/- mice; format: cell-based
Procedure: For primary culture of renal tubule cells, kidneys were collected from 2- to 4-week-old male mice. Cells were isolated by 2 mg/ml collagenase I (Gibco #17018-029) digestion for 30 min at 37° C. with gentle stirring and filtered through a 100-μm mesh. The cell suspension was cultured in RPMI 1640 (Corning #10-040-CM) supplement with 10% FBS (Atlanta Biologicals #S11950), 20 ng/ml EGF (Peprotech #AF-100-15), 1×ITS (Gibco #51500-056), and 1% penicillin-streptomycin (Corning #30-002-CI) at 5% CO2 and 37° C.
Primary cultured renal tubule cells or NRK52E cells were incubated with 1 μM transferrin (Thermo Fisher #T13342) for 4 h, or 5 μM mitoSOX (ThermoFisher #M36008) for 10 min, or 2 μM BODIPY™ 581/591 C11 (Thermo Fisher #D3861) for 0.5 h, or 20 ng/ml dextran conjugated to 488 (Thermo Fisher #D22910) for 2 h, at 5% CO2 and 37° C., respectively. After washing with PBS, cells were imaged directly under the confocal or regular fluorescence microscope.
Mouse primary tubular epithelial cells from wild-type, mutant mice or NRK52E cells were plated in 96-well plate. Transfection of NRK52E cells with siRNA was carried out as described above. […] Cells were harvested and stained with trypan blue (Thermo Fisher #T10282) to visualize dead cells. Cell counts were analyzed in Countess Auto Counter (Invitrogen, C10227). LDH release was quantified using CytoTox 96 Non-Radioactive Cytotoxicity Assay (Promega #G1780). Medium was collected in triplicates, spun down, and incubated in a 96-well plate with the CytoTox reagent for 20-30 min. After adding the stop solution, the absorbance signal was measured at 490 nm in a plate reader. The ratio between dead cell and live cell was calculated through the measurement using MultiTox-Fluor Multiplex Cytotoxicity Assay (Promega #9201). Cells were incubated in assay buffer containing live cell substrate GF-AFC and dead cell substrate bis-AAF-R110 for 30 min at 37° C. The plate fluorescence was measured using a plate reader as following: viability: excitation ˜400 nm; emission ˜505 nm. cytotoxicity: excitation ˜485 nm; emission ˜520 nm.

mitochondrial ROS = assay: MitoTempo in TGF-beta 1 treated primary tubule cells; format: cell-based, mice
Procedure: as §1
Cells cultured as above and pretreated with 100 μM MitoTempo (#SML0737, Sigma) for 2 h, followed by TGF-beta 1 treatments while MitoTempo was still present.

ACSS2 [4] = biological target: T2, ACSS2 (Mus musculus, UniProt Q9QXG4); assay: UUO mouse model of kidney fibrosis with ACSS2i; format: in vivo, mice
T2 construct: from tissue; host or cells: living C57BL/6J mice; read-outs in kidney
Procedure: as §2, §3, §4, §5

ACSS2 [5] = biological target: ACSS2 (Homo sapiens, UniProt Q9NR19); details: cell and animal models; cited from earlier work
Chain of ACSS2 (Homo sapiens, UniProt Q9NR19) (Q9NR19 whole entry, species assumed): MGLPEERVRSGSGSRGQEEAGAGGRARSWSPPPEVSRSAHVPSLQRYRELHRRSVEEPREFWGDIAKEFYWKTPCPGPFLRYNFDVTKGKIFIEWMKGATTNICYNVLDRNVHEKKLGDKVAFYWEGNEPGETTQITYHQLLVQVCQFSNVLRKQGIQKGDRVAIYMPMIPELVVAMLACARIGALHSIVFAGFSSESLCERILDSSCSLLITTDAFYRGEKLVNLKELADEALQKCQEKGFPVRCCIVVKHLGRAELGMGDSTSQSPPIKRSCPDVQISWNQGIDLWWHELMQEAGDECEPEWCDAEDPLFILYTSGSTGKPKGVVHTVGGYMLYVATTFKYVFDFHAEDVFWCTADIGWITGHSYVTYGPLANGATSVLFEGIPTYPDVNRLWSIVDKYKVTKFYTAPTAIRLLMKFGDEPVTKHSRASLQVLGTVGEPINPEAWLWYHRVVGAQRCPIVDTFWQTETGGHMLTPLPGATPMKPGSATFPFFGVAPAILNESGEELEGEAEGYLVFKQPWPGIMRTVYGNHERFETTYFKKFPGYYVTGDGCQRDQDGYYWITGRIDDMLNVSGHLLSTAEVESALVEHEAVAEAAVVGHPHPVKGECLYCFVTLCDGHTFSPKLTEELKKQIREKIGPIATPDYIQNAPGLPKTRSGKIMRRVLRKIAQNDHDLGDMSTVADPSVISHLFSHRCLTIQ

T1 sequence (P19096 whole entry): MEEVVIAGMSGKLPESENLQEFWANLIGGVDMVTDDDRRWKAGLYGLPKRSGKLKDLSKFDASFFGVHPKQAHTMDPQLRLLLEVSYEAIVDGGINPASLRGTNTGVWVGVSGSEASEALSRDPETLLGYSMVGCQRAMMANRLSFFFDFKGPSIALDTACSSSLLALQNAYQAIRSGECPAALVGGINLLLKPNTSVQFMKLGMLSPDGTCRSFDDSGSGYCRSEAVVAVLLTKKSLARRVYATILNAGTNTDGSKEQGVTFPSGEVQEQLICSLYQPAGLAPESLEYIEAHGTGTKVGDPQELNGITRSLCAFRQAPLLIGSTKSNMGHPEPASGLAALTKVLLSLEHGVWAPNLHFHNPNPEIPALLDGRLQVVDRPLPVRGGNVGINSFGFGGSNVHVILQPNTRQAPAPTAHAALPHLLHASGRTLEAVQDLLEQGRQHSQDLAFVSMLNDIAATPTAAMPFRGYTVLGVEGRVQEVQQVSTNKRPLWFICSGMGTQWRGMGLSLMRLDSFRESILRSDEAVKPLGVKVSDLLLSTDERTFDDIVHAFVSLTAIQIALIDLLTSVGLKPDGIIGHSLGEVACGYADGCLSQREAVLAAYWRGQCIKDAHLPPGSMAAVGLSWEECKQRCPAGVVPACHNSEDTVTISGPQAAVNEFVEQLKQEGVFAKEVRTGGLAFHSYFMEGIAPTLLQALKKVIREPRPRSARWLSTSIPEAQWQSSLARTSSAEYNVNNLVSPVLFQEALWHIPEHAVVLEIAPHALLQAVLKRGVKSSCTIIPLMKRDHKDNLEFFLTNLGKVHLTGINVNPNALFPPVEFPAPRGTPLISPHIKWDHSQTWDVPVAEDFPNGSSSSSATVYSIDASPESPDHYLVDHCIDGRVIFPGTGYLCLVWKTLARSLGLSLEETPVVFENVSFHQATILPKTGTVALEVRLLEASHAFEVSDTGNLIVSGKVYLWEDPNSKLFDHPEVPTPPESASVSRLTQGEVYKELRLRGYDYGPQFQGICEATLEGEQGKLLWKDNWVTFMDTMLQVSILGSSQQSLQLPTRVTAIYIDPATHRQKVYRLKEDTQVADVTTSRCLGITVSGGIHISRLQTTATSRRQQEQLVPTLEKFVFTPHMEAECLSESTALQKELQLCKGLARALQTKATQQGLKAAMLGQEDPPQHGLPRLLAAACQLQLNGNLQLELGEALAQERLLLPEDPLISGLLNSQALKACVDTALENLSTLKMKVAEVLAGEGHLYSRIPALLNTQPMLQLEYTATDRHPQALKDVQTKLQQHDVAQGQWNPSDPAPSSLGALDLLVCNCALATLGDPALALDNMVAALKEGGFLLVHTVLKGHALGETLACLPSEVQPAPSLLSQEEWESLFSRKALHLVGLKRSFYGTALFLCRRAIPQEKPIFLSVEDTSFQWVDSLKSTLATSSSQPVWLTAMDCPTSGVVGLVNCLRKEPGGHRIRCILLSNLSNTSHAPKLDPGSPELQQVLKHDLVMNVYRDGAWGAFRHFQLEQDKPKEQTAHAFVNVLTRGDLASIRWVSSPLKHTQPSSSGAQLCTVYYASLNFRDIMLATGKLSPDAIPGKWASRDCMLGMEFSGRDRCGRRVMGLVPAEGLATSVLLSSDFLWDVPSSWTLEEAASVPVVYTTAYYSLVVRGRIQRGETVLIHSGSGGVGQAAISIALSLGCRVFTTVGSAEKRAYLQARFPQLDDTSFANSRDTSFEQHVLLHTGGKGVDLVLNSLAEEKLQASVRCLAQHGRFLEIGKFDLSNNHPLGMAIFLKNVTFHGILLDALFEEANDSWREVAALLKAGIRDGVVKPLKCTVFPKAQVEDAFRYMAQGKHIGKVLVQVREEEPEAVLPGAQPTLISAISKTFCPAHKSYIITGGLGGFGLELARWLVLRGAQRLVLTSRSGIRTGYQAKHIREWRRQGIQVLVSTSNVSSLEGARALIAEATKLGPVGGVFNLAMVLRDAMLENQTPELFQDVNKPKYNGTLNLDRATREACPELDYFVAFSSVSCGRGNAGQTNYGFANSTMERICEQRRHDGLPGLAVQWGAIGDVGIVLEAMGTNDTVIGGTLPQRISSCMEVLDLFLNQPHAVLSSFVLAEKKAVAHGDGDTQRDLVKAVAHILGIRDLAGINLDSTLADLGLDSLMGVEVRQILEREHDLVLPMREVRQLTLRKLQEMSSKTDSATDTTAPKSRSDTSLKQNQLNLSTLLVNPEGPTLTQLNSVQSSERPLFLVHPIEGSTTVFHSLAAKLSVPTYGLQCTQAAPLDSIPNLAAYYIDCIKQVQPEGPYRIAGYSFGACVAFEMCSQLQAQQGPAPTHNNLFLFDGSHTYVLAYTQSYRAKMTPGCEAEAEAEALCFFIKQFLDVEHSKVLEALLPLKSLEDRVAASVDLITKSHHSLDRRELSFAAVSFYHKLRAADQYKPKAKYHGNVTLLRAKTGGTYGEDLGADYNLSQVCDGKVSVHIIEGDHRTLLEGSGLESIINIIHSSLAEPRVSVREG
T2 sequence (Q9QXG4 whole entry): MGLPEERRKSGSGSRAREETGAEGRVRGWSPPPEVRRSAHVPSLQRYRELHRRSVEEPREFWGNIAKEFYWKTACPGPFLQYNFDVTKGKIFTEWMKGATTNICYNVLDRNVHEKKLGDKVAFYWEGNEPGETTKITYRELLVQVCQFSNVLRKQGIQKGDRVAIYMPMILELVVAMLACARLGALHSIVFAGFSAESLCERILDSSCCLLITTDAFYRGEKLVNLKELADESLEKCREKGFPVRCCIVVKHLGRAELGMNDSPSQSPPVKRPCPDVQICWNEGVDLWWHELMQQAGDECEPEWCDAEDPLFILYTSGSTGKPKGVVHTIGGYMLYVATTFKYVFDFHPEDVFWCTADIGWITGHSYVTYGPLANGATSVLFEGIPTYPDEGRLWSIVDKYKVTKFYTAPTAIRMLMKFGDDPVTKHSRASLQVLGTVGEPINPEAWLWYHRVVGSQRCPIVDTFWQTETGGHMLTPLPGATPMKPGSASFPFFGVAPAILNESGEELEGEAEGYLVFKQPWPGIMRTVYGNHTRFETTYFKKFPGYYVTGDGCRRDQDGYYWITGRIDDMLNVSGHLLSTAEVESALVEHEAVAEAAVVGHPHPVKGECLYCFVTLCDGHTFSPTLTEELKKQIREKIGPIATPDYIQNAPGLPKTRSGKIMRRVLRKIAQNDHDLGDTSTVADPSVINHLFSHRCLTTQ

## Cc1sc2ncnc(NC3CCN(Cc4ccccc4)C3)c2c1C (stereo not drawn) [FASNall]
FASN [1]; TGF-beta 1 treated WT cells
  less negative mitochondrial membrane potential (monomeric JC-1 accumulation): attenuated this effect
FASN [1]; TGF-beta 1 treated cells
  GSH levels and relative GSH/GSSH ratio: preserved
FASN [1]; TGF-beta 1 treated tubule cells
  NADPH/NADP+ ratio: preserved
FASN [2]; UUO kidneys
  Protein levels of FN1 and α-SMA: suppressed; also recorded: lower
  TGs (TAGs) levels in kidney: prevented; also recorded: lower
  fibrosis markers Acta2, Col1a1, Col3a, and Fn1 gene expression: lower
  gene expression of NLRP3, IL-1B, IL18, caspase1 and Gsdmd: lower
  lipid accumulation (Oil red O staining): attenuated; also recorded: lower
FASN [2]; UUO kidneys vs vehicle
  tissue scarring (Sirius red staining): less
  tubule atrophy and fibrosis (histological analysis): lower
FASN [2]; UUO kidneys vs vehicle treated
  Protein levels of NLRP3, caspase1, cleaved caspase1 (p20), F-GSDMD, and N-GSDMD: lower
FASN [2]; UUO kidneys, single dose 10 mg/kg i.p., 10 mg/kg
  Fasn and Plin2 expression: significantly prevented; also recorded: ameliorated
FASN [2]; mice
  kidney injury and fibrosis / kidney disease development: prevented kidney injury and fibrosis development; also recorded: protect mice from kidney disease development
FASN [3]
  cell death (cell viability): did not increase cell death

## CC1(C)CC(NC(=O)C[P+](c2ccccc2)(c2ccccc2)c2ccccc2)CC(C)(C)N1[O] [Mito-TEMPO]
Primary TECs; Chmp1a+/- primary TECs
  LDH release induced by cisplatin: markedly lowered
Primary TECs; primary TECs from wild-type or Chmp1a+/- mice
  lipid peroxidation (C11 BODIPY 581/591) induced by cisplatin: markedly lowered
Mitochondrial ROS; following TGF-beta 1 treatment, MitoTempo 100 μM
  inflammasome activation (IL-1B, IL18, and caspase1 increase): efficiently lowered
Mitochondrial ROS; primary TECs
  TGF-beta 1 induced expression of fibrosis markers / fibrotic genes: lowered; also recorded: diminished

## COCCNC(=O)Nc1ccc2nc(-c3cccs3)c(-c3cccs3)nc2c1 [ACSS2i]
ACSS2 [4]; UUO
  fibrosis and tubule atrophy (H&E, Sirius red quantification): markedly lower
ACSS2 [4]; UUO kidney injury
  Gene and protein expression of fibrosis markers (Acta2, Col1a1, Col3a, and Fn1): reduced fibrosis; also recorded: protective effect
ACSS2 [4]; UUO kidneys
  gene expression of NLRP3, IL-1B, IL18, caspase1 and Gsdmd: lower
  lipid accumulation (Fasn, Plin2 expression, TG accumulation): inhibited
ACSS2 [4]; UUO kidneys vs vehicle treated
  Protein levels of NLRP3, caspase1, cleaved caspase1 (p20), F-GSDMD, and N-GSDMD: lower
ACSS2 [4]; mice
  kidney disease development: protect mice from kidney disease development
ACSS2 [4]; vs vehicle alone
  collagen fibers staining (Sirius Red): reduced
ACSS2 [4]; vs vehicle injected mice
  UUO induced kidney injury (H&E analysis): prevented
ACSS2 [5]
  obesity-induced multiple myeloma growth: reduce
